The record followed here is patent US6828320B2, “Heterocyclic compounds” (SmithKline Beecham Corporation, priority 1996, dated 2004).

Structures can show the parent of a compound that is named as a salt. Where two headings read alike, the source gives them in different places.

For experiment [1], the target named is T1, c-erbB-4 (baculovirus expressed, recombinant intracellular domain) (Homo sapiens, UniProt Q15303).
T1 construct: baculovirus expressed, recombinant constructs of the intracellular domains of c-erbB-2 and c-erbB-4; made in house
Nature of the experiment: Substrate phosphorylation assay, c-erbB-4. Type of experiment: biochemical. How it is done: (§1) The substrate phosphorylation assays use baculovirus expressed, recombinant constructs of the intracellular domains of c-erbB-2 and c-erbB-4 that are constitutively active and EGFr isolated from solubilised A431 cell membranes. The method measures the ability of the isolated enzymes to catalyse the transfer of the γ-phosphate from ATP onto tyrosine residues in a biotinylated synthetic peptide (Biotin-[…]. […] The reaction is stopped by the addition of EDTA (final concentration 0.15 mM) and a sample is transferred to a streptavidin-coated 96-well plate. The plate is washed and level of phosphotyrosine on the peptide is determined using a Europium-labelled antiphosphotyrosine antibody and quantified with a time-resolved fluorescence technique.

For experiment [2], the system named is HN5-head and neck tumour cell line. Put plainly: Cell proliferation assay, HN5. It counts as cell-based, human. To be noted: same methodology, 4 days. How it is done:
(§2) The cell proliferation assay uses an immortalised human breast epithelial cell line (HB4a) which has been transformed by over-expression of c-erbB-2. Growth of these cells in low serum is dependent upon the c-erbB-2 tyrosine kinase activity. The specificity of the effect of the test compounds on tyrosine kinase dependent growth over general toxicity is assessed by comparison to an HB4a cell line which has been transfected with ras. Cells are plated at 3000/ well in 96-well plates in 0.1 ml medium and allowed to attach overnight. test compound is added in 0.1 ml medium, with a final concentration of 0.5% DMSO, and the plates incubated for 4 days at 37° C. The cells are then examined microscopically for evidence of morphological detransformation and cell mass is estimated by staining with methylene blue and measuring the absorbance at 620 nm. The results are shown in Table 1 below as the IC50 values in nM. Activity against a range of naturally occurring EGFr or c-erbB-2 over-expressing human tumour cell lines (BT474-breast, HN5-head and neck, N87-gastric and Calu3-lung) is assessed with selected compounds by the same methodology. The results are also shown in Table 1 below as the IC50 values in nM.

In experiment [3] the target is HB4a cell line transformed by over-expression of c-erbB-2 (Homo sapiens, UniProt P04626). Put plainly: Cell proliferation assay, HB4a erbB-2. It counts as cell-based. To be noted: 4 days at 37° C., methylene blue staining; read-out: Cell Proliferation HB4a erbB-2. The procedure:
as §2, with “The specificity of the effect of the test compounds on tyrosine kinase dependent growth over general toxicity is assessed by comparison to an HB4a cell line which has been transfected with ras.” left out, “The results are shown in Table 1 below as the IC50 values in nM.” left out, “methodology.” for “methodology. The results are also shown in Table 1 below as the IC50 values in nM.”

In experiment [4] the target is T2, c-erbB-2 (baculovirus expressed, recombinant intracellular domain) (Homo sapiens, UniProt P04626).
T2 construct: baculovirus expressed, recombinant constructs of the intracellular domains of c-erbB-2 and c-erbB-4; made in house
Put plainly: Substrate phosphorylation assay, c-erbB-2. Type of experiment: biochemical. To be noted: read-out: Substrate Phosphorylation erbB-2. How it is done:
as §1

In experiment [5] the test system is BT474-breast tumour cell line. Nature of the experiment: Cell proliferation assay, BT474. To be noted: same methodology, 4 days. It counts as cell-based, human. How it is done: as §2
Experiment [6] deals with HB4a cell line transfected with ras. Nature of the experiment: Cell proliferation assay, HB4a ras. It counts as cell-based, human. To be noted: 4 days at 37° C., methylene blue staining, general toxicity control, read-out: Cell Proliferation HB4a ras.
Experiment [7] relates to Calu3-lung tumour cell line. Put plainly: Cell proliferation assay, Calu3. It counts as cell-based, human. To be noted: same methodology, 4 days. The procedure:
as §2

The subject of experiment [8] is N87-gastric tumour cell line. Nature of the experiment: Cell proliferation assay, N87. Type of experiment: cell-based, human. To be noted: same methodology, 4 days. How it is done: as §2
For experiment [9], the target named is T3, EGFr isolated from solubilised A431 cell membranes (Homo sapiens, UniProt P00533).
T3 construct: EGFr isolated from solubilised A431 cell membranes; endogenous in cells; host or cells: A431 cell membranes (solubilised)
Nature of the experiment: Substrate phosphorylation assay, EGFr. Type of experiment: biochemical. To be noted: 30 minutes, room temperature, ATP and peptide at Km concentrations. The procedure:
as §1

T1 sequence (Q15303 676-1308 limits assumed): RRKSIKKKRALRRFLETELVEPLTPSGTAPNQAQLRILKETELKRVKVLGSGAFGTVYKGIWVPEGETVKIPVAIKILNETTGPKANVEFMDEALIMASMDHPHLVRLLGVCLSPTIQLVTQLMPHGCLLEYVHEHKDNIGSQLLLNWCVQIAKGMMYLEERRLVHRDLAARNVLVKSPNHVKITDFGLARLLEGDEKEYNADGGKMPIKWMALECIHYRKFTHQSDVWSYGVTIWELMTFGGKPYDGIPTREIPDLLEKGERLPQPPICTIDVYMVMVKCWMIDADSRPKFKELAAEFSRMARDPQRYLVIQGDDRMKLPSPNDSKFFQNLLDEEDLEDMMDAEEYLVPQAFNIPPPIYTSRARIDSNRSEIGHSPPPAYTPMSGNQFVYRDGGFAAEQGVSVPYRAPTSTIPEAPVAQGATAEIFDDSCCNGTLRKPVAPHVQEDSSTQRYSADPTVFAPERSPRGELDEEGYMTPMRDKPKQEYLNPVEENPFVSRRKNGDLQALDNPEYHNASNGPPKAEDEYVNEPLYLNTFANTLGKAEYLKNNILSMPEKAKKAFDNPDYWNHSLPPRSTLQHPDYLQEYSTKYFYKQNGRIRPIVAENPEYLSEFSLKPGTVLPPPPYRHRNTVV
T2 sequence (P04626 676-1255 limits assumed): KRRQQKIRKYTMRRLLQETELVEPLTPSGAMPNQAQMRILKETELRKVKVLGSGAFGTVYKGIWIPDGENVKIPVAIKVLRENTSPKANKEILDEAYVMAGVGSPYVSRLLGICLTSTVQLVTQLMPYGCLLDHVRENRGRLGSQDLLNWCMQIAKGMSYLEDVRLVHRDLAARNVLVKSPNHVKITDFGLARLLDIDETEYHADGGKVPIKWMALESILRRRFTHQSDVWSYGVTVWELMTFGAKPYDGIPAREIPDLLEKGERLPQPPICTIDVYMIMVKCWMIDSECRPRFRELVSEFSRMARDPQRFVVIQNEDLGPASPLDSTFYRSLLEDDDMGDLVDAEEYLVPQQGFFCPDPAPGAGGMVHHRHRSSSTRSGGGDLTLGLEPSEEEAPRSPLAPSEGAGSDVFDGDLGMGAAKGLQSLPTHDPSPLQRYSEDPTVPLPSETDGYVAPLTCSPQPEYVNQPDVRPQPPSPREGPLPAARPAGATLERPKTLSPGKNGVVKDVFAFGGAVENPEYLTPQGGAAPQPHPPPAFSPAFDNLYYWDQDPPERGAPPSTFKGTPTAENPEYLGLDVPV
T3 sequence (P00533 25-1210): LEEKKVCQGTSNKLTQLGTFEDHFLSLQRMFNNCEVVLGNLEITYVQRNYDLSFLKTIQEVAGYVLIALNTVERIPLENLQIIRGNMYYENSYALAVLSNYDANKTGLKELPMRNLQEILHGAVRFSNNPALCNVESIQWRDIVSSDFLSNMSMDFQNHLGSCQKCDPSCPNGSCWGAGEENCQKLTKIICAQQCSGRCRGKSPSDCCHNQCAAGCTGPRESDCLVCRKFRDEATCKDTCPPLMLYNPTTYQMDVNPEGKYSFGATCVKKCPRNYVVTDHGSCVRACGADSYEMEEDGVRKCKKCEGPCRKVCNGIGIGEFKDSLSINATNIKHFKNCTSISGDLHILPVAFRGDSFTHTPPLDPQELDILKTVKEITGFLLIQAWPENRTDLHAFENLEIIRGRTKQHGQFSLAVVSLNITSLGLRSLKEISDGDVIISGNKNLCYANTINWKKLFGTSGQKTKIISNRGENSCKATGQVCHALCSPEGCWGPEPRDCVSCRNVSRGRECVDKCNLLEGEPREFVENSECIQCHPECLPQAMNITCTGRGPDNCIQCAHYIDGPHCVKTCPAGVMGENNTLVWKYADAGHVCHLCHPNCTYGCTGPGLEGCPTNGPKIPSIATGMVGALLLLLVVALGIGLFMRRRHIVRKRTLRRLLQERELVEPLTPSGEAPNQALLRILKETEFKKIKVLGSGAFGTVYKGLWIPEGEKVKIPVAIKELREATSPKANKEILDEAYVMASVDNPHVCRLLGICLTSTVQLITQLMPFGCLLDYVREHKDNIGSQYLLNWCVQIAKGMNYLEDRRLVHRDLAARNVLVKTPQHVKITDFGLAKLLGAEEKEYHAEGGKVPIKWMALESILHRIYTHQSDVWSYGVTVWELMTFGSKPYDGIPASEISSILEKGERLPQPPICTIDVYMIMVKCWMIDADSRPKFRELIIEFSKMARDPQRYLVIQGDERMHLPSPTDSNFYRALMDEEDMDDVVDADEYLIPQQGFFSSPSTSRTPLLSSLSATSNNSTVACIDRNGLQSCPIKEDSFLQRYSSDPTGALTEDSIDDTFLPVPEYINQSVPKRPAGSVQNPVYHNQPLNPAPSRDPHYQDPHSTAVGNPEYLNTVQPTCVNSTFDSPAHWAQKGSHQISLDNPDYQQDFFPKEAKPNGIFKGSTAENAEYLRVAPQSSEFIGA
Chain of HB4a cell line transformed by over-expression of c-erbB-2 (P04626 whole entry, change not shown): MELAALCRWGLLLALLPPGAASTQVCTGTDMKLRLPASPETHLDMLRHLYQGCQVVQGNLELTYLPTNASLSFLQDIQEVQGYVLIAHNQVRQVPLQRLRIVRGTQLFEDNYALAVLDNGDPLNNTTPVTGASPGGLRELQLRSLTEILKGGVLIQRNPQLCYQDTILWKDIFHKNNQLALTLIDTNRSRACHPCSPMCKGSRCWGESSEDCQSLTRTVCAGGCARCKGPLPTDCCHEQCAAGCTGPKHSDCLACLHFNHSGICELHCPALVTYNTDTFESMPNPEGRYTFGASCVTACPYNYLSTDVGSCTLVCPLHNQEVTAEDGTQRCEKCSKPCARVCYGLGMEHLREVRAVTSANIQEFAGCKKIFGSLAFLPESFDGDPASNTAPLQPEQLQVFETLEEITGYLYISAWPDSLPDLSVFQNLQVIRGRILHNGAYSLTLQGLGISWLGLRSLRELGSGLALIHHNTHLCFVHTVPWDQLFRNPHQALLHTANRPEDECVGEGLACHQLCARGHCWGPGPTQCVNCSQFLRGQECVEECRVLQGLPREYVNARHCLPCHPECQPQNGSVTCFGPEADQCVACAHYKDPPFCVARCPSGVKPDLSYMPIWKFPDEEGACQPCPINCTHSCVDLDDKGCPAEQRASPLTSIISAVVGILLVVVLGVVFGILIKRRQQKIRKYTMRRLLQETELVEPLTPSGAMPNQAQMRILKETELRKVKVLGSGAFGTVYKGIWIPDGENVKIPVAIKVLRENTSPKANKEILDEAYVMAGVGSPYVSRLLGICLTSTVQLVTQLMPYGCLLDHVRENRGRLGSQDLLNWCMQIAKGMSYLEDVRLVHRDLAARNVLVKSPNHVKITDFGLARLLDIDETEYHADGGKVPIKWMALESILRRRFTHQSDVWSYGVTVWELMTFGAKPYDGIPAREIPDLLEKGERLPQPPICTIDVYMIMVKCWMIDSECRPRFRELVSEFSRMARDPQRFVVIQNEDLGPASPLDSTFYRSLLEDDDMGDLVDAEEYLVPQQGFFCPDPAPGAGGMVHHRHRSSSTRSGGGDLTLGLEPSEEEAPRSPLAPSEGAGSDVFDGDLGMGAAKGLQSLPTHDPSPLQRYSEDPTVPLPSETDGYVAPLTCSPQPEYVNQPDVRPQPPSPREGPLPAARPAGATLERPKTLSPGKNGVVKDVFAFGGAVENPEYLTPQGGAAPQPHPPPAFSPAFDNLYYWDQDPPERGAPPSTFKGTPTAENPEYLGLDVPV

Consider `NC(=O)[C@@H]1CCCN1Cc1ccc(-c2ccc3ncnc(Nc4ccc5c(cnn5Cc5ccccc5)c4)c3c2)o1` [Example 18, (S)-1-(5-(4-(1-Benzyl-1H-indazol-5-ylamino)-quinazolin-6-yl)-furan-2-ylmethyl)-pyrrolidine-2-carboxylic acid amide dihydrochloride], for which the IC50 in experiment [1] is 34 nM; in experiment [2] (Homo sapiens, 96 h), 840 nM; in experiment [4] it was 45 nM; in experiment [5] (Homo sapiens, BT-474, 96 h), 2 nM; in experiment [6] (Homo sapiens, HB4a, 96 h), more than 50 µM; in [7] (Homo sapiens, Calu-3, 96 h) it was 360 nM. Further, the IC50 in experiment [8] (Homo sapiens, 96 h) is 180 nM. Moreover, the GI50 in experiment [3] came to 9 nM.

For the compound `Cn1cncc1-c1ccc2ncnc(Nc3ccc(OCc4ccccc4)cc3)c2c1` [Example 6, (4-Benzyloxy-phenyl)-(6-(3-methyl-3H-imidazol-4-yl)-quinazolin-4-yl)-amine], the IC50 came out at 1000 nM in experiment [1]; 680 nM in experiment [9]; 5200 nM in [2] (Homo sapiens, 96 h); 110 nM in [4]; 1900 nM in experiment [5] (Homo sapiens, BT-474, 96 h); 16 µM in [6] (Homo sapiens, HB4a, 96 h). Moreover, the IC50 in experiment [7] (Homo sapiens, Calu-3, 96 h) came to 5800 nM; in [8] (Homo sapiens, 96 h), 1800 nM. Further, the GI50 in [3] is 1600 nM.

As to `Cc1nnc(-c2ccc3ncnc(Nc4ccc5c(cnn5Cc5cccc(F)c5)c4)c3c2)o1` [Example 22, (1-(3-Fluorobenzyl)-1H-indazol-5-yl)-(6-(5-methyl-1,3,4-oxadiazol-2-yl)-quinazolin-4-yl)-amine hydrochloride], the IC50 in experiment [9] was determined as 8 nM; in experiment [2] (Homo sapiens, 96 h) it was 910 nM; in [5] (Homo sapiens, BT-474, 96 h), 97 nM; in experiment [6] (Homo sapiens, HB4a, 96 h), 27 µM; in experiment [7] (Homo sapiens, Calu-3, 96 h) it was 2200 nM; in [8] (Homo sapiens, 96 h), 600 nM. In experiment [3], the GI50 was 430 nM.

As to `NC(=O)[C@@H]1CCCN1Cc1ccc(-c2ccc3ncnc(Nc4ccc(OCc5ccccc5)cc4)c3c2)o1` [Example 11, (S)-1-(5-(4-(4-Benzyloxy-phenylamino)-quinazolin-6-yl)-furan-2-ylmethyl)-pyrrolidine-2-carboxylicacid amide], the IC50 worked out at 660 nM in [1]; 160 nM in experiment [9]; 940 nM in experiment [2] (Homo sapiens, 96 h); 36 nM in experiment [4]; 180 nM in experiment [5] (Homo sapiens, BT-474, 96 h); 14 µM in [6] (Homo sapiens, HB4a, 96 h). Besides, the IC50 in experiment [7] (Homo sapiens, Calu-3, 96 h) stood at 930 nM; in [8] (Homo sapiens, 96 h), 480 nM. Moreover, the GI50 in experiment [3] turned out to be 580 nM.

For `CS(=O)(=O)CCNCc1ccc(-c2ccc3ncnc(Nc4ccc5c(cnn5Cc5ccccc5)c4)c3c2)o1` [Example 19, (1-Benzyl-1H-indazol-5-yl)-(6-(5-((2-methanesulphonyl-ethylamino)-methyl)-furan-2-yl)-quinazolin-4-yl)-amine dihydrochloride], the IC50 in experiment [1] turned out to be 240 nM; in experiment [9], 8 nM; in experiment [2] (Homo sapiens, 96 h), 670 nM; in experiment [4], 1 nM; in experiment [5] (Homo sapiens, BT-474, 96 h), 110 nM; in experiment [6] (Homo sapiens, HB4a, 96 h) it was 25 µM. Also, the IC50 came out at 920 nM in experiment [7] (Homo sapiens, Calu-3, 96 h) and 380 nM in experiment [8] (Homo sapiens, 96 h). For the same compound, the GI50 in experiment [3] was found to be 50 nM.

For `Cc1nnc(-c2ccc3ncnc(Nc4ccc5c(cnn5Cc5ccccc5)c4)c3c2)o1` [Example 41, (1-Benzyl-1H-indazol-5-yl)-(6-(5-methyl-1,3,4-oxadiazol-2-yl)-quinazolin-4-yl)-amine hydrochloride], the IC50 was determined as 1000 nM in [1]; 2 nM in experiment [9]; 970 nM in [2] (Homo sapiens, 96 h); 10 nM in [4]; 260 nM in experiment [5] (Homo sapiens, BT-474, 96 h); 35 µM in experiment [6] (Homo sapiens, HB4a, 96 h). The IC50 in experiment [7] (Homo sapiens, Calu-3, 96 h) was found to be 5300 nM; in experiment [8] (Homo sapiens, 96 h) it was 1400 nM. The GI50 in [3] came out at 610 nM.

`Cc1nnc(-c2ccc3ncnc(Nc4ccc(OCc5cccc(F)c5)cc4)c3c2)o1` [Example 29, hydrochloride]: the IC50 in experiment [9] was 23 nM; in experiment [2], 4400 nM; in [4] (30 minutes, room temperature, ATP and peptide at Km concentrations) it was 3 nM; in experiment [5], 770 nM; in [6], more than 50 µM; in experiment [7], 23000 nM. This compound yielded an IC50 in experiment [8] of 2400 nM. Further, the GI50 in experiment [3] came out at 2500 nM.
